{"source": "patent US20220016135A1", "about": "“TREATING BREAST CANCER WITH HORMONE RECEPTOR MODULATORS” (UNIVERSITY OF MIAMI, priority 2020, published 2022)", "type_in_all_cases": "cell-based, human", "key": {"MDA-MB-453": {"system": "MDA-MB-453", "experiment": "cell proliferation assay, MDA-MB-453", "details": "ER-negative control cell line MDA-MB-453, ICI 182,780 100 nM; FIG. 24H"}, "MDA-MB-468": {"system": "MDA-MB-468", "experiment": "cell proliferation assay (cell titer blue), MDA-MB-468", "details": "MDA-MB-468 (HR1, VDR+), Calcitrol 25 nM alone; FIG. 24A-24C"}, "SUM159": {"system": "SUM159", "experiment": "cell proliferation assay (cell titer blue), SUM159", "details": "SUM159 (HR1, VDR+), Calcitrol 25 nM alone; FIG. 24A-24C"}, "BT20": {"system": "BT20", "experiment": "cell proliferation assay (cell titer blue), BT20", "details": "BT20 (HR1, VDR+), Calcitrol 25 nM alone; FIG. 24A-24C"}}}
{"smiles": "C[C@]12CC[C@@H]3c4ccc(O)cc4C[C@@H](CCCCCCCCC[S+]([O-])CCCC(F)(F)C(F)(F)F)[C@H]3[C@@H]1CC[C@@H]2O", "note": "(stereo partly shown) [ICI 182,780]", "values": [{"measurement": "inhibition of cell proliferation", "setting": "MDA-MB-453", "value": "no inhibition of cell proliferation"}]}
{"smiles": "C=C1/C(=C\\C=C2/CCC[C@]3(C)[C@@H]([C@H](C)CCCC(C)(C)O)CC[C@@H]23)C[C@@H](O)C[C@@H]1O", "note": "[Calcitrol, Calcitriol]", "values": [{"measurement": "proliferation", "setting": "MDA-MB-468", "value": "reduction in proliferation"}, {"measurement": "proliferation", "setting": "SUM159", "value": "reduction in proliferation"}, {"measurement": "proliferation", "setting": "BT20", "value": "reduction in proliferation"}]}
